# Measured values as given in patent US20140227731A1, “DRUG FOR ANALYSIS OF WATER TRANSPORT FUNCTION OF MEMBRANE PROTEIN IN BIOLOGICAL TISSUE” (TAIYO NIPPON SANSO CORPORATION, priority 2013, published 2014).
# Tested on: radish
# Test: Permeation of red food coloring water into round radish slices
# Procedure: Using radish that was cut into round slices with thicknesses of 6-10 cm, the bottom faces of the round slices were immersed in red food coloring water for 1-16 hours, As the red food coloring, Red No. 102 (chemical name: 7-hydroxy-8-(4-sulfonaphthylazo)-1,3-naphthylenedisulfonic acid=trisodium salt=1½ hydrate) was used.
compound,measurement,setting,value
"O.O.O.O=S(=O)([O-])c1cc(S(=O)(=O)[O-])c2c(N=Nc3ccc(S(=O)(=O)[O-])c4ccccc34)c(O)ccc2c1.O=S(=O)([O-])c1cc(S(=O)(=O)[O-])c2c(N=Nc3ccc(S(=O)(=O)[O-])c4ccccc34)c(O)ccc2c1.[Na+].[Na+].[Na+].[Na+].[Na+].[Na+] [Red No. 102, 7-hydroxy-8-(4-sulfonaphthylazo)-1,3-naphthylenedisulfonic acid=trisodium salt=1½ hydrate]",permeation of red food coloring into radish tissue,"bottom face immersed, one hour elapsed",had soaked into the connective tissue at the periphery of the round slices from the bottom face
same,sites permeated by red food coloring water,immersed for 16 hours,not found anywhere other than the connective tissue
